Laboratory results: patent US20250136607A1 (REGOR PHARMACEUTICALS, INC., priority 2021, published 2025)
Values joined by “and” are separate entries in the source; they are usually repeats but may differ in a detail not shown here. Equal entries are not always repeated. Where two headings read alike, the source gives them in different places.

Target: Protein arginine deiminase 4 (PAD4) (Homo sapiens, UniProt Q9UM07)
Experiment: PAD4 ammonia release assay
Assay type: biochemical
Description: 1) Compound preparation: The compounds were diluted to 80× final concentrations. 2) The compounds were transferred to a 384-well assay plate by Tecan. DMSO: 1.25%. 3) Preparation of 1×Assay buffer: 100 mM HEPES, PH=8.0, 2 mM CaCl2, 50 mM NaCl, 0.1 mM TCEP, 0.6 mg/ml BSA. 4) 2× enzyme working solution (PAD4:20 nM) was prepared with assay buffer, and 10 μL of the obtained working solution were added to the 384-well assay plates. 5) The plate was centrifuged at 1000 rpm for 1 min. 6) After the centrifuge, the plate was incubated at RT for 15 min. 7) 2×BAEE substrate mix (600 μM) was prepared with assay buffer and 10 μL of the obtained substrate mix were added to each well. 8) The plate was centrifuged at 1000 rpm for 1 min and then incubated at RT for 60 min. 9) 1.5× detection mix (DTT:4 mM, OPA:3 mM, EDTA: 30 mM) was prepared, and 10 μL of the mix were added to the plate. 10) The plate was centrifuged at 1000 rpm for 1 min and then incubated at RT for 120 min. 11) The 384-well plates were placed into the Envision (PerkinElmer) and the assay data were collected.
The percent (%) inhibition at each concentration of compound was calculated based on and relative to the signal in the HPE (50 μM ref. compound) and ZPE (1.25% DMSO) wells included within each assay plate. The HPE worked as 100% inhibition, and the ZPE worked as 0% inhibition. The concentrations and % inhibition values for tested compounds were plotted and the concentration of compound required for 50% inhibition (IC50) was determined with a Four-parameter logistic dose response equation. The endpoint value (IC50) for the reference compound was evaluated in each experiment as a quality control measure. If the endpoint value is within 3-fold of the expected value, then the experiment quality is deemed as acceptable. The results are provided in Table 1 below. ≤0.1 μM=“++++”; >0.1 and ≤0.5 μM=“+++”; >0.5 and ≤5.0 μM=“++”; >5.0 μM=“+”. “−”=not available.

[1] = PAD4 ammonia release assay, BAEE substrate, 60 min at RT, read-out: Average IC50 Abs
[2] = PAD4 activity comparison, read-out: PAD4 Ammonia assay IC50

Sequence of Protein arginine deiminase 4 (PAD4) (Q9UM07 whole entry): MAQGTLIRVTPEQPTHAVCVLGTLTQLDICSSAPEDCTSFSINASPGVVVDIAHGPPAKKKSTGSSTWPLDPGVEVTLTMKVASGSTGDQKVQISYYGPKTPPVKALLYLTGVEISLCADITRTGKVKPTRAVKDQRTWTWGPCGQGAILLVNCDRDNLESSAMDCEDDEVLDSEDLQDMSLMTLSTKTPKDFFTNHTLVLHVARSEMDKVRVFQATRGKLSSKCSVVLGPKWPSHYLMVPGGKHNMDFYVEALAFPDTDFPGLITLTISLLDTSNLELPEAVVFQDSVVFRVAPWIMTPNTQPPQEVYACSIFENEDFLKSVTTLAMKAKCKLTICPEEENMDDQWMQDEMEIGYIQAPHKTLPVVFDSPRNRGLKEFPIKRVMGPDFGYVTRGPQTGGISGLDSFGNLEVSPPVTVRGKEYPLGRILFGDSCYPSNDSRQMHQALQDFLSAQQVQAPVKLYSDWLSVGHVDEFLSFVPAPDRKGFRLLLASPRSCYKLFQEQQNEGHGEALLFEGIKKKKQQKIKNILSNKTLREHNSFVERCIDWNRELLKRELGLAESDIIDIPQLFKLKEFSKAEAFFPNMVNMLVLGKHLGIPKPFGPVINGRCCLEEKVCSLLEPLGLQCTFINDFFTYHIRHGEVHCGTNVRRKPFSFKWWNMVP

| IC50 [1] | IC50 [2] | SMILES |
| --- | --- | --- |
| ≤ 0.1 µM |  | Cn1c(-c2cc3cccc4c3n2C(C2CC2)CN4)nc2cc(C(=O)N3C[C@H]4CC[C@@H]3[C@@H]4N)cc(F)c21 (mixture of isomers) [Example 108, ((1R,4R,7R)-7-amino-2-azabicyclo[2.2.1]heptan-2-yl)(2-(3-cyclopropyl-2,3-dihydro-1H-pyrrolo[1,2,3-de]quinoxalin-5-yl)-7-fluoro-1-methyl-1H-benzo[d]imidazol-5-yl)methanone] |
| 0.5 to 5 µM |  | Cn1c(-c2cc3cccc4c3n2[C@H](C2CC2)CN4)nc2cc(C(=O)N3C[C@H]4CC[C@@H]3[C@@H]4N)cc(F)c21 (single isomer, unassigned) [Example 109] |
| 0.5 to 5 µM |  | Cn1c(-c2cc3cccc4c3n2[C@H](C2CC2)CN4CCCO)nc2cc(C(=O)N3C[C@H]4CC[C@@H]3[C@@H]4N)cc(F)c21 (single isomer, unassigned) [Example 113] |
| 0.5 to 5 µM |  | Cn1c(-c2cc3ccc(C#N)c4c3n2[C@H](C2CC2)CN4)nc2cc(C(=O)N3C[C@H]4CC[C@@H]3[C@@H]4N)cc(F)c21 (single isomer, unassigned) [Example 116] |
| > 5 µM |  | CC[C@@H]1[C@H](C)Nc2cccc3cc(-c4nc5cc(C(=O)N6C[C@H]7CC[C@@H]6[C@@H]7N)cc(F)c5n4C)n1c23 (single isomer, unassigned) [Example 133] |
|  | ~15.2 µM and 15.2 µM | Cn1c(-c2cc3cccc4c3n2CCO4)nc2cc(C(=O)N3CCC[C@@H](N)C3)ccc21 [A, reference compound] |
|  | 7.28 µM | CC1COc2cccc3cc(-c4nc5cc(C(=O)N6CCC[C@@H](N)C6)ccc5n4C)n1c23 (some centres unmarked) [B, reference compound] |
| 0.5 to 5 µM |  | COc1cc(C(=O)N2C[C@H](N)C[C@@H](F)C2)cc2nc(-c3cc4cccc5c4n3CCN5CCCNC(C)=O)n(C)c12 [Example 1, N-(3-(5-(5-((3R,5R)-3-amino-5-fluoropiperidine-1-carbonyl)-7-methoxy-1-methyl-1H-benzo[d]imidazol-82-yl)-2,3-dihydro-1H-pyrrolo[1,2,3-de]quinoxalin-1-yl)propyl)acetamide] |
| 0.5 to 5 µM |  | COc1cc(C(=O)N2CCC[C@@H](N)C2)cc2nc(-c3cc4cccc5c4n3CCN5CCCNC(C)=O)n(C)c12 [Example 3, (R)—N-(3-(5-(5-(3-aminopiperidine-1-carbonyl)-7-methoxy-1-methyl-1H-benzo[d]imidazol-2-yl)-2,3-dihydro-1H-pyrrolo[1,2,3-de]quinoxalin-1-yl)propyl)acetamide] |
| 0.5 to 5 µM |  | COc1cc(C(=O)N2C[C@H](N)C[C@@H](F)C2)cc2nc(-c3cc4cccc5c4n3CCN5CCCNC(=O)NC3CC3)n(C)c12 [Example 4, 1-(3-(5-(5-((3R,5R)-3-amino-5-fluoropiperidine-1-carbonyl)-7-methoxy-1-methyl-1H-benzo[d]imidazol-2-yl)-2,3-dihydro-1H-pyrrolo[1,2,3-de]quinoxalin-1-yl)propyl)-3-cyclopropylurea] |
| 0.5 to 5 µM |  | COc1cc(C(=O)N2CCC[C@@H](N)C2)cc2nc(-c3cc4cccc5c4n3CCN5CCCNC(=O)NC3CC3)n(C)c12 [Example 5, (R)-1-(3-(5-(5-(3-aminopiperidine-1-carbonyl)-7-methoxy-1-methyl-1H-benzo[d]imidazol-2-yl)-2,3-dihydro-1H-pyrrolo[1,2,3-de]quinoxalin-1-yl)propyl)-3-cyclopropylurea] |
| 0.5 to 5 µM |  | COc1cc(C(=O)N2C[C@H]3CC[C@@H]2[C@@H]3N)cc2nc(-c3cc4cccc5c4n3CCN5CCCNC(=O)NC3CC3)n(C)c12 [Example 6, 1-(3-(5-(5-((1R,4R,7R)-7-amino-2-azabicyclo[2.2.1]heptane-2-carbonyl)-7-methoxy-1-methyl-1H-benzo[d]imidazol-2-yl)-2,3-dihydro-1H-pyrrolo[1,2,3-de]quinoxalin-1-yl)propyl)-3-cyclopropylurea] |
| 0.5 to 5 µM |  | COc1cc(C(=O)N2CCC[C@@H](N)C2)cc2nc(-c3cc4cccc5c4n3CCN5CCCN)n(C)c12 [Example 7] |
| > 5 µM |  | COc1cc(C(=O)N2CCC[C@@H](N)C2)cc2nc(-c3cc4cccc5c4n3CCC(=O)N5)n(C)c12 [Example 8, (R)-6-(5-(3-aminopiperidine-1-carbonyl)-7-methoxy-1-methyl-1H-benzo[d]imidazol-2-yl)-3,4-dihydro-[1,4]diazepino[3,2,1-hi]indol-2(1H)-one] |
| > 5 µM |  | COc1cc(C(=O)N2CCC[C@@H](N)C2)cc2nc(-c3cc4cccc5c4n3CC(=O)N5)n(C)c12 [Example 9, (R)-5-(5-(3-aminopiperidine-1-carbonyl)-7-methoxy-1-methyl-1H-benzo[d]imidazol-2-yl)-1H-pyrrolo[1,2,3-de]quinoxalin-2(3H)-one] |
| 0.5 to 5 µM |  | COc1cc(C(=O)N2C[C@H]3CC[C@@H]2[C@@H]3N)cc2nc(-c3cc4cccc5c4n3CCN5CCO)n(C)c12 [Example 11, ((1R,4R,7R)-7-amino-2-azabicyclo[2.2.1]heptan-2-yl)(2-(1-(2-hydroxyethyl)-2,3-dihydro-1H-pyrrolo[1,2,3-de]quinoxalin-5-yl)-7-methoxy-1-methyl-1H-benzo[d]imidazol-5-yl)methanone] |
| > 5 µM |  | COc1cc(C(=O)N2CC[C@@H](N)C2)cc2nc(-c3cc4cccc5c4n3CCN5CCCO)n(C)c12 [Example 15, (R)-(3-aminopyrrolidin-1-yl)(2-(1-(3-hydroxypropyl)-2,3-dihydro-1H-pyrrolo[1,2,3-de]quinoxalin-5-yl)-7-methoxy-1-methyl-1H-benzo[d]imidazol-5-yl)methanone] |
| > 5 µM |  | COc1cc(C(=O)N2CCC[C@@](C)(N)C2)cc2nc(-c3cc4cccc5c4n3CCN5CCCO)n(C)c12 [Example 16, (R)-(3-amino-3-methylpiperidin-1-yl)(2-(1-(3-hydroxypropyl)-2,3-dihydro-1H-pyrrolo[1,2,3-de]quinoxalin-5-yl)-7-methoxy-1-methyl-1H-benzo[d]imidazol-5-yl)methanone] |
| > 5 µM |  | COc1cc(C(=O)N2C[C@H](N)C[C@@H](C(F)(F)F)C2)cc2nc(-c3cc4cccc5c4n3CCN5CCCO)n(C)c12 [Example 17, ((3R,5R)-3-amino-5-(trifluoromethyl)piperidin-1-yl)(2-(1-(3-hydroxypropyl)-2,3-dihydro-1H-pyrrolo[1,2,3-de]quinoxalin-5-yl)-7-methoxy-1-methyl-1H-benzo[d]imidazol-5-yl)methanone] |
| 0.5 to 5 µM |  | COc1cc(C(=O)N2C[C@H](N)CC(F)(F)C2)cc2nc(-c3cc4cccc5c4n3CCN5CCCO)n(C)c12 [Example 18, (R)-(5-amino-3,3-difluoropiperidin-1-yl)(2-(1-(3-hydroxypropyl)-2,3-dihydro-1H-pyrrolo[1,2,3-de]quinoxalin-5-yl)-7-methoxy-1-methyl-1H-benzo[d]imidazol-5-yl)methanone] |
| > 5 µM |  | COc1cc(C(=O)N2CCC[C@](C)(N)C2)cc2nc(-c3cc4cccc5c4n3CCN5CCCO)n(C)c12 [Example 19, (S)-(3-amino-3-methylpiperidin-1-yl)(2-(1-(3-hydroxypropyl)-2,3-dihydro-1H-pyrrolo[1,2,3-de]quinoxalin-5-yl)-7-methoxy-1-methyl-1H-benzo[d]imidazol-5-yl)methanone] |
| 0.5 to 5 µM |  | COc1cc(C(=O)N2CC[C@@H](F)[C@@H](N)C2)cc2nc(-c3cc4cccc5c4n3CCN5CCCO)n(C)c12 [Example 20, ((3S,4R)-3-amino-4-fluoropiperidin-1-yl)(2-(1-(3-hydroxypropyl)-2,3-dihydro-1H-pyrrolo[1,2,3-de]quinoxalin-5-yl)-7-methoxy-1-methyl-1H-benzo[d]imidazol-5-yl)methanone] |
| 0.5 to 5 µM |  | COCCCN1CCn2c(-c3nc4cc(C(=O)N5CCC[C@@H](N)C5)cc(OC)c4n3C)cc3cccc1c32 [Example 21, (R)-(3-aminopiperidin-1-yl)(7-methoxy-2-(1-(3-methoxypropyl)-2,3-dihydro-1H-pyrrolo[1,2,3-de]quinoxalin-5-yl)-1-methyl-1H-benzo[d]imidazol-5-yl)methanone] |
| 0.1 to 0.5 µM |  | COc1cc(C(=O)N2C[C@H](N)C[C@@H](F)C2)cc2nc(-c3cc4cccc5c4n3CCN5CCOCCO)n(C)c12 [Example 22, ((3R,5R)-3-amino-5-fluoropiperidin-1-yl)(2-(1-(2-(2-hydroxyethoxy)ethyl)-2,3-dihydro-1H-pyrrolo[1,2,3-de]quinoxalin-5-yl)-7-methoxy-1-methyl-1H-benzo[d]imidazol-5-yl)methanone] |
| > 5 µM |  | COc1cc(C(=O)N2CCC[C@@H](N)C2)cc2nc(-c3cc4cccc5c4n3CCN5Cc3ccccc3)n(C)c12 [Example 24, (R)-(3-aminopiperidin-1-yl)(2-(1-benzyl-2,3-dihydro-1H-pyrrolo[1,2,3-de]quinoxalin-5-yl)-7-methoxy-1-methyl-1H-benzo[d]imidazol-5-yl)methanone] |
| > 5 µM |  | COc1cc(C(=O)N2CCC[C@@H](N)C2)cc2nc(-c3cc4cccc5c4n3CCN5C)n(C)c12 [Example 25] |
